Assay results from the SangsterLogP compilation.

Test: method code SF-ESR, from DOI: 10.3109/10715769009149900, PMID: 2175281
Settings: pH 2.5
`CC1(C)C=C(C(=O)O)C(C)(C)N1O` showed a logD of 1.11. Molecule `CC1(C)[C@H](C(=O)O)[C@H](C(=O)O)C(C)(C)N1O` has a logD of 0.46.

Same assay, conditions: pH 7.0
With `CC1(C)CC(=O)CC(C)(C)N1O` the logD was 0.12. In the case of `CC1(C)CC(CO)C(C)(C)N1O` (stereo unspecified), the logD is reported as 0.34. `CC1(C)C=C(C(N)=O)C(C)(C)N1O` showed a logD of 0.25. With `CC1(C)CC(C(N)=O)C(C)(C)N1O` (stereo unspecified) the logD was -0.21. With `CC1(C)C=CC(C)(C)N1O` the logD was 1.31. With `CC1(C)C=CCC(C)(C)N1O` the logD was 1.78. With `CC1(C)CC(O)CC(C)(C)N1O` the logD was 0.63.

Same assay, conditions: pH 12.0
In the case of `CN(C)CCN(C)CC1=CC(C)(C)N(O)C1(C)C`, the logD is reported as 0.91. `CC1(C)C=C(CN2CCOCC2)CC(C)(C)N1O` showed a logD of 1.14. For `CN(C)CC1=CC(C)(C)N(O)C1(C)C`, the logD was 0.7. Molecule `CC1(C)CC(CN)C(C)(C)N1O` (stereo unspecified) has a logD of 0.36. With `CC1(C)C=C(CN2CCCCC2)C(C)(C)N1O` the logD was 1.88. `CC1(C)C=C(CN2CCCCC2)CC(C)(C)N1O` gave a logD of 1.58. Molecule `CC1(C)CC(N)C(C)(C)N1O` (stereo unspecified) has a logD of 1.03.
